# Results published in patent US6472516B1, “Progestin-regulated gene” (The Garvan Institute of Medical Research, priority 1995, dated 2002).
# Marks after values point to notes of the source that are not given here. Numbered stars: 1 amine (or outer) side, 2 acyl side, 3 side chain; on linkers, the order of the positions; unused ones are H or OH. Bridge positions count the residues as written; N and C are the ends. Square brackets hold non-standard residues; d marks the D form. Peptide text beside a SMILES is read from it. I, II: the chains in the order shown. Actinocin(9to1) = Cc1c2oc3c(C)ccc(C(=O)[*:1])c3nc-2c(C(=O)[*:2])c(N)c1=O; NMeV = CN[C@H](C(=O)O)C(C)C; Sar = CNCC(=O)O
# Columns and labels:
# PRG1 mRNA [1] = assay: Northern analysis of PRG1 mRNA expression in MCF-7 cells; type: cell-based, human
# Experimental: (§1) The sources and maintenance of the human breast cancer cell lines used in this study were as described previously (33). 184 and 184B5 normal breast epithelial cells were the kind gift of Dr. M. Stampfer (University of California, Berkley, Calif.) and were maintained in mammary epithelial growth medium (Clonetics, San Diego, Calif.). Tissue culture experiments in serum-free medium were performed as previously described (6, 27). Briefly, T-47D cells were taken from stock cultures and passaged for 6 days in phenol red-free RPMI medium supplemented with 10% charcoal-treated fetal calf serum (FCS). During this time the cells received two changes of medium at 1- to 3-day intervals. The cells were replated into replicate 150 cm^2 flasks in medium containing 10% charcoal-treated FCS and the medium replaced with serum-free medium on the next two days. Serum-free medium was supplemented with 300 nM human transferrin. In experiments involving ORG 2058 the final serum-free medium contained 10 μg/ml (1.7 μM) human insulin. Three days after completion of these pre-treatments growth factor, steroid, steroid antagonist or cycloheximide were added. Control flasks received vehicle to the same final concentration. Cell cycle phase distribution was determined by analytical DNA flow cytometry, as previously described (6, 34).
# (§2) Tissue culture experiments in serum-containing medium were performed as previously described (34). The experiment with livial and actinomycin D was as for experiments in serum-containing medium except that the medium contained 5% charcoal-treated FCS. Actinomycin D was added at the same time as livial. The experiment involving “estrogen rescue” was performed as described (30). […]
# (§3) Cells harvested from triplicate 150 cm^2 flasks were pooled and RNA extracted by a guanidinium-isothiocyanate-cesium chloride procedure and Northern analysis was performed as previously described with 20 μg of total RNA per lane (6, 11). […] The mRNA abundance was quantified by densitometric analysis of autoradiographs using Molecular Dynamics Densitometer and software (Molecular Dynamics, Sunnyvale, Calif.). […]
# PRG1 mRNA [2] = assay: Northern analysis of PRG1 mRNA expression in T-47D cells; type: cell-based, human; details: for Induction of PRG1 mRNA by mitogen: T-47D growth-arrested by serum deprivation, 3 or 4 h, insulin 1.7 μM, heregulin 5 nM, bFGF 55 pM; for Relative mRNA Expression: relative to cells maintained in serum-free medium
# Experimental: as §1
# Tissue culture experiments in serum-containing medium were performed as previously described (34). The experiment with livial and actinomycin D was as for experiments in serum-containing medium except that the medium contained 5% charcoal-treated FCS. Actinomycin D was added at the same time as livial. The experiment involving “estrogen rescue” was performed as described (30). Briefly, MCF-7 cells were cultured in medium containing 5% FCS for 2 days. The antiestrogen ICI 182780 (10 nM) was then added to the medium for 48 h. after which the growth-arrested cells were treated with 100 nM 17β-estradiol, also added directly to the medium, resulting in the synchronous re-entry of cells into the cell cycle.
# Cells harvested from triplicate 150 cm^2 flasks were pooled and RNA extracted by a guanidinium-isothiocyanate-cesium chloride procedure and Northern analysis was performed as previously described with 20 μg of total RNA per lane (6, 11). The membranes were hybridized overnight at 50° C. with probes labelled with [α-^32P]dCTP (Amersham Australia Pty Ltd, Castle Hill, Australia) using the Random Prime Labelling Kit (Promega, Sydney, Australia). The membranes were washed at a highest stringency of 0.2× SSC (30 mM NaCl. 3 mM sodium citrate [pH 7.0])+ 1% sodiwn dodecyl sulfate at 65° C. and exposed to Kodak X-OMAT or BIOMAX film at −70° C. Human multiple tissue Northern blots (Clontech Laboratories, Inc. Palo Alto, Calif.) were hybridized under conditions recommended by the manufacturer. The mRNA abundance was quantified by densitometric analysis of autoradiographs using Molecular Dynamics Densitometer and software (Molecular Dynamics, Sunnyvale, Calif.). The accuracy of loading was estimated by hybridizing membranes with a [γ-^32P]ATP end-labelled oligonucleotide complementary to 18S rRNA.
# PRG1 mRNA [3] = assay: Northern analysis of PRG1 mRNA expression in MDA-MB-231 cells; type: cell-based, human
# Experimental: as §1, §2, §3
# T-47D cells = details: previously reported (refs 32, 54); cited from earlier work
# [4] = T-47D, insulin-supplemented serum-free medium, 10 nM
compound,measurement,setting,value
C[C@]12CC[C@@H]3c4ccc(O)cc4CC[C@H]3[C@@H]1CC[C@@H]2O [17β-estradiol],Relative mRNA Expression,"PRG1 mRNA [1]; MCF-7, at 4 h, after ICI 182 780 pre-treatment for 48 h, relative to antiestrogen treated control",2.0^‡ at 4 h
same,Induction of PRG1 mRNA by estrogen rescue,"PRG1 mRNA [1]; MCF-7 growth-arrested by ICI 182780 (10 nM, 48 h), then 100 nM 17β-estradiol, 4 h",2.0 fold
"CCC1CC2C3CCC4=CC(=O)CCC4C3CCC2(C)C1C(=O)CO (stereo not drawn) [ORG 2058, 16α-ethyl-21-hydroxy-19-norpregn-4-en-3,20-dione]",Superinduction of PRG1 mRNA relative to control,"PRG1 mRNA [2]; T-47D, ORG 2058 10 nM in presence of cycloheximide 20 μg/ml, 3 h, experiment of FIG. 8",12 fold
same,Time by which PRG1 mRNA had returned to control levels,PRG1 mRNA [2]; [4],≤ 12 h
same,Time of maximal PRG1 mRNA induction,PRG1 mRNA [2]; [4],3 h
same,Maximal PRG1 mRNA induction relative to time-matched control,"PRG1 mRNA [2]; T-47D, insulin-supplemented serum-free medium, 10 nM, 3 h, experiment of FIG. 5",4.4 fold
same,PRG1 mRNA increase above control mRNA levels,"PRG1 mRNA [1]; MCF-7 (PR-positive), 5% FCS, 10 nM, 3 h",approximately 2 fold
same,PRG1 mRNA decrease below control mRNA levels,"PRG1 mRNA [3]; MDA-MB-231 (PR-negative), 10 nM, 3 h",approximately 30%
same,PRG1 mRNA level at 6 h after the decrease at 3 h (in words),"PRG1 mRNA [3]; MDA-MB-231, 6 h, ORG 2058 10 nM, dexamethasone 100 nM",recovery
CC#C[C@]1(O)CC[C@H]2[C@@H]3CCC4=CC(=O)CCC4=C3[C@@H](c3ccc(N(C)C)cc3)C[C@@]21C [RU 486],"Effect on PRG1 mRNA levels, compound alone","PRG1 mRNA [2]; T-47D, serum-free medium with insulin, 100 nM, 3 h",no effect
"Cc1c2oc3c(C)ccc(C(=O)N[C@@H]4C(=O)N[C@H](C(C)C)C(=O)N5CCC[C@H]5C(=O)N(C)CC(=O)N(C)[C@@H](C(C)C)C(=O)O[C@@H]4C)c3nc-2c(C(=O)N[C@@H]2C(=O)N[C@H](C(C)C)C(=O)N3CCC[C@H]3C(=O)N(C)CC(=O)N(C)[C@@H](C(C)C)C(=O)O[C@@H]2C)c(N)c1=O [actinomycin D] (I: T[dV]P[Sar][NMeV] / II: T[dV]P[Sar][NMeV]; ester I:1-I:C, II:1-II:C; linker I:N-II:N via Actinocin(9to1))",Effect on progestin induction of PRG1 mRNA,"PRG1 mRNA [2]; T-47D, actinomycin D 5 μg/ml with livial 10 nM",blocked
"C[C@@H]1C[C@@H]([C@H](O)CC2CC(=O)NC(=O)C2)C(=O)[C@@H](C)C1 [cycloheximide, Cycloheximide]","Effect on PRG1 mRNA, compound alone","PRG1 mRNA [2]; T-47D, cycloheximide 20 μg/ml alone, 3 h",increase of PRG1 mRNA to a level similar to that achieved by ORG 2058 alone
same,Effect on progestin-mediated induction of PRG1 mRNA,"PRG1 mRNA [2]; T-47D, cycloheximide 20 μg/ml with ORG 2058 10 nM, 3 h",failed to block
"C[C@@H]1C[C@H]2[C@@H]3CCC4=CC(=O)C=C[C@]4(C)[C@@]3(F)[C@@H](O)C[C@]2(C)[C@@]1(O)C(=O)CO [dexamethasone, 9-fluro-11,17,21-trihydroxy-16-methylpregn-1,4-diene-3,20-dione]",PRG1 mRNA as percent of control levels,"PRG1 mRNA [3]; MDA-MB-231, 100 nM, 3 h",approximately 60 % of control
"C#C[C@]1(O)CC[C@H]2[C@@H]3[C@H](C)CC4=C(CCC(=O)C4)[C@H]3CC[C@@]21C [livial, (7α, 17α)-17-hydroxy-7-methyl-19-norpregn-5(10)-en-20-yn-3-one]",PRG1 mRNA induction (in words),"PRG1 mRNA [2]; T-47D, 5% charcoal-treated FCS, 10 nM",induced
same,PRG1 mRNA induction in presence of transcription inhibitor,"PRG1 mRNA [2]; T-47D, 5% charcoal-treated FCS, livial 10 nM with actinomycin D 5 μg/ml",not induced
bFGF: human recombinant bFGF,Induction of PRG1 mRNA by mitogen,PRG1 mRNA [2],1.9 fold
same,Relative mRNA Expression,"PRG1 mRNA [2]; T-47D, at 3 h",2.6^† at 3 h
same,Potency as mitogen in stimulating cell cycle progression,T-47D cells,equipotent
heregulin,Induction of PRG1 mRNA by mitogen,PRG1 mRNA [2],2.6 fold
same,Relative mRNA Expression,"PRG1 mRNA [2]; T-47D, at 4 h",1.9^† at 4 h
same,Potency as mitogen in stimulating cell cycle progression,T-47D cells,one of the most potent mitogens
"insulin: human insulin, Actrapid; CSL-Novo",Induction of PRG1 mRNA by mitogen,PRG1 mRNA [2],2.8 fold
same,Relative mRNA Expression,"PRG1 mRNA [2]; T-47D, at 4 h",2.8^† at 4 h
same,Potency as mitogen in stimulating cell cycle progression,T-47D cells,equipotent
